Test results: patent publication US20120035557A1, “Personal Care Compositions Comprising A Multi-Active System For Down Regulating Cytokines Irritation” (priority 2010, published 2012)
Where a name gives a salt, the structure may show the parent alone.

Test system: IL-1α (cytokine expression in hTERT keratinocytes)
Assay: In vitro assay: IL-1α in supernatants of IL-1β-treated hTERT keratinocytes (sandwich immunoassay, indexed to ATP viability)
Format: cell-based, human
Details: for Avg IL-1α measurement: hTERT keratinocytes, 18 hrs, 6 replicates; for IL-1α reduction compared in words (significance groupings): 500 ppm, IL-1β treated hTERT keratinocytes, >95% confidence
Method: The following in vitro assay test was conducted to determine the effect of White Tea Extract, Panthenol and Glycyrrhizinate salt on cytokine expression in hTERT keratinocytes:
BACKGROUND: hTERT-keratinocytes are a telomerase-immortalized neonatal epidermal keratinocyte line. Cell cultures of this type are known in the literature and have been used as models for multiple pathways as shown in the following references: Shay and Wright; Carcinogenesis, vol 26; no 5, pp 867-74, 2005; Bodner, et. al., Science, vol 279 pp 349-52, 1998; Ramirez, et. al., Oncogene, 22; pp 433-44, 2002. These cells display many features characteristic of normal primary keratinocytes and respond to normal growth controls in vitro.
TEST PROTOCOL: all measures were run in replicate (n=6).
To ensure proper levels of the biological active molecules for the in vitro study, dilution studies are conducted and ATP is analyzed for the highest non-cytotoxic concentration. White Tea Extract (H1615 WS, lot 98680094S-005) at a level of 500 ppm, Panthenol (lot 10063909S-018) at a level of 500 ppm, and Glycyrrhizinate salt (Barnet 25908N297) at a level of 500 ppm are used for this study. ATP analysis is described below.
ATP analysis is conducted using Cell Titer-Glo. The CellTiter-Glo Luminescent Cell Viability Assay is obtained from Promega Corporation (Madison, Wis.). This assay is a homogeneous method for determining the number of viable cells in culture based on quantitation of ATP present, signaling the presence of metabolically active cells. After the final treatment and supernatants collected, the CellTiter-Glo reagent is added. The reagent is then transferred to a BD Falcon (Franklin Lakes, N.J.) Microtest 96-well Assay Plate (black, flat bottom, reference 353945, lot 041151). Luminescence is read on a Perkin Elmer Fluorimeter (Wallac Envision 2101 Multilabel Reader). Relative luminescence units are plotted in percent control versus treatment concentration.
hTERT cells are cultured in complete EpiLife (Cascade Biologics, Portland, Oreg.) culture media in T75 culture flasks (Falcon, Becton Dickinson Labware, Franklin Lakes, N.J.) under 37° C./5% CO2 conditions. […] 2 ml of the cell suspension (density 20,000/cm^2) are plated in each well of a 6-well culture dish (Falcon) and cultured under 37° C./5% CO2 conditions overnight. A complete media exchange is performed and the cells are again cultured overnight under 37° C./5% CO2 conditions. The culture media is removed and 2 ml of treatment are placed in each well and the cells are cultured for 18 hrs. For all legs other than Control, IL-1β is added to the treatment at 1 nanogram per mL (for 2 nanograms per treatment). After the treatment period, the cell culture supernatants are collected and analyzed immediately for Interleukin-1α with an R&D Systems (Minneapolis, Minn.) kit which deploys the quantitative sandwich immunoassay technique. ATP is measured from cell lysates an indicator of viability. IL-1α is indexed to cell viability to ensure a proper reading of actual activity.
TESTING: This test was conducted and the analysis of the data is as follows. Statistical differences among treatments for IL-1α were analyzed via JMP using a log-transform before the analysis of variance. The log-transform ensures that the response data are normally distributed and have equal variance. […]

[1] = 500 ppm ingredient + IL-1β 1 nanogram per mL, IL-1α indexed to cell viability

With `C[C@H]1C[C@H]2[C@@H]3CCC4=CC(=O)C=C[C@]4(C)[C@@]3(F)[C@@H](O)C[C@]2(C)[C@@]1(O)C(=O)CCl` [Clobetasol, reference compound] the “Avg IL-1α measurement” value (4.5 ppm + IL-1β, positive control) was 14.29.
In the case of `CC1(C)[C@@H](O[C@H]2O[C@H](C(=O)O)[C@@H](O)[C@H](O)[C@H]2O[C@H]2O[C@@H](C(=O)O)[C@H](O)[C@@H](O)[C@@H]2O)CC[C@]2(C)[C@H]3C(=O)C=C4[C@@H]5C[C@@](C)(C(=O)O)CC[C@]5(C)CC[C@@]4(C)[C@]3(C)CC[C@@H]12` [Glycyrrhizinate salt], the “Avg IL-1α measurement” value [1] was 17.57 and the “IL-1α reduction compared in words (significance groupings)” value was “slightly higher IL-1α reduction”.
In the case of `CC(C)(CO)[C@@H](O)C(=O)NCCCO` [Panthenol], the “Avg IL-1α measurement” value [1] was 24.41 and the “IL-1α reduction compared in words (significance groupings)” value was “not significantly different than the IL-1β treated cells”.
